The structures appear in SMILES notation.

We go through one compound from US6972294B1, “Compounds, their preparation and use” (Novo Nordisk, A/S, priority 1999, dated 2005).

For orientation: melting point means the temperature, or range, at which the solid turns liquid. In turn, `CCOC(=O)C(Cc1ccc(OCC=C(c2ccccc2)c2ccncc2)cc1)OCC` (stereo not shown) [Example 29, 2-Ethoxy-3-[4-(3-phenyl-3-pyridin-4-yl-allyloxy)-phenyl]-propionic acid ethyl ester] displayed a melting point of 84 to 87 °C.
